In patent US4288609A, “Quaternary ammonium derivatives of adamantane with antimicrobic activity” (priority 1976, dated 1981):
Where two headings read alike, the source gives them in different places.

Experiments:
[1] = system: Pseudom.Aer. ATCC 1014; assay: M.I.C. in vitro, gram- Pseudom. Aer. (Table 1); assay type: cell-based, Pseudomonas Aeruginosa; conditions: Pseudomonas aeruginosa, read-out: M.I.C.
Procedure: (§1) The method for evaluating the activity in vitro against bacteria, fungi and protozoa consists in introducing calculated quantities of the substance, the activity of which it is desired to test, into culture media already inoculated with a predetermined number of test germs.
(§2) After 24 or 48 hours of incubation at 30° or 37° C., according to the micro-organism being tested, it is possible to evaluate the growth of the same in the culture broth; in this manner the minimum concentration (M.I.C.) which inhibits the growth of the micro-organisms in vitro is determined.
(§3) In table 1 there are recorded the M.I.C. values in γ/ml of the products subject of the present invention, against certain gram+ and gram- bacterial strains, some of which are pathogenic towards human beings.

[2] = system: gram+ and gram- bacterial strains; assay: Activity in vitro on gram+ and gram- bacteria, overall; assay type: cell-based; conditions: gram positive and gram negative strains, low concentrations
Procedure: as §1, §2, §3

[3] = system: Klens. Pneum. ISM; assay: M.I.C. in vitro, gram- Klens. Pneum. (Table 1); assay type: cell-based; conditions: read-out: M.I.C.
Procedure: as §1, §2, §3

[4] = system: Nicrosporum Canis ATCC 11621; assay: MIC mildews, Microsporum canis (Table 2); assay type: cell-based; conditions: Microsporum canis, Sabourand broth, read-out: MIC
Procedure: as §1, §2
Inoculation with Trichophyton mentagrophytes and Microsporum canis was effected in a ratio of 1% of the volume of medium used.
(§4) For the fungi Sabourand broth was used as a culture medium, whilst for the protozoa Kupferberg Trichomonas broth with 5% of horse serum was used.

[5] = system: Streptococ. Henclyt. 0203; assay: M.I.C. in vitro, gram+ Streptococ. Henclyt. (Table 1); assay type: cell-based; conditions: read-out: M.I.C.
Procedure: as §1, §2, §3

[6] = system: Staph.Aureus Tour; assay: M.I.C. in vitro, gram+ Staph. Aureus (Table 1); assay type: cell-based, Staphylococcus Aureus; conditions: Staphylococcus aureus, read-out: M.I.C.
Procedure: as §1, §2, §3

[7] = system: Trich. Foetus ISM 66/23; assay: MIC protozoa, Trichomonas foetus (Table 2); assay type: cell-based; conditions: Tritrichomonas foetus, +10% serum (head); Kupferberg Trichomonas broth with 5% of horse serum; read-out: MIC
Procedure: as §1, §2
Inoculation with Trichomonas vaginalis and Trichomonas foetus, obtained from cultures transplanted every other day to make them lively, was effected in a ratio of 3.5% of the volume of medium used.
as §4

[8] = system: Trichophyton Mentagrophytes; assay: Topical activity upon dermatophytis from Trichophyton in cavies (Table 6); assay type: in vivo, Albino cavies; conditions: in vivo
Procedure: Albino cavies of 250-300 g are infected, after depilation and scarification of a circular area of dorsal skin upon which there are supplied 0.1 ml of a suspension of microconidia of Trichophyton Mentagrophytes from the Pasteur Institute collection, obtained from a culture of 15 days upon Saboureaud agar. 24 Hours after infection topical treatment is started and is continued for two weeks (once per day).
The compounds to be tested are dissolved or suspended at the desired concentration, in a water-alcohol mixture (75/25 v/v) containing 0.75% by weight of carboxymethyl-cellulose (CMC). […] Each single application is carried out using 0.25 ml of the suspension or solution obtained as described above.
Fourteen days after infection the lesions are assessed. Assessment is carried out by attributing index numbers depending upon the seriousness of the lesions formed, as follows:
The substances under examination were tested at concentrations of 5 and 2.5% by weight.

[9] = system: Escherichia Coli SKF 12140; assay: Speed of sterilising action, Escherichia Coli (Table 3); assay type: cell-based
Procedure: (§5) The strains, inoculants, culture broths and experimental methods are as already seen for calculating the M.I.C. in vitro. The antimicrobic substances were tested at concentrations of 0.1, 0.25, 0.5 and 1 g/l, the contact times taken into consideration are 0, 1, 2.5, 5, 7.5, 10, 15, 30 and 60 minutes.
(§6) The samples which at the 7th day of incubation still had no growth of micro-organisms which could be observed macroscopically and/or microscopically were considered sterile.
(§7) The results are recorded in Table 3 in terms of sterilization time expressed in minutes.

[10] = system: Esch. Coli. SKF 12140; assay: M.I.C. in vitro, gram- Esch. Coli (Table 1); assay type: cell-based, Escherichia Coli; conditions: Escherichia coli, read-out: M.I.C.
Procedure: as §1, §2, §3

[11] = system: all the micro-organisms tested; assay: Speed of sterilising action, all micro-organisms; assay type: cell-based; conditions: even with a very low concentration
Procedure: as §5, §6, §7

[12] = system: Proteus Vulc. ATCC 881; assay: M.I.C. in vitro, gram- Proteus Vulc. (Table 1); assay type: cell-based; conditions: read-out: M.I.C.
Procedure: as §1, §2, §3

[13] = system: Candida Albic. SKF 2270; assay: MIC yeasts, Candida albicans (Table 2); assay type: cell-based; conditions: for MIC: Candida, Sabourand broth, read-out: MIC; for activity on Candida albicans, times greater than that of cetyl pyridine chloride: in the absence of serum; for activity on Candida albicans, times higher than that of cetyl pyridine chloride: in the presence of 10% of horse serum
Procedure: as §1, §2
Inoculation with Candida albicans or Candida pseudotropicalis was made by diluting cultures grown for 24 h at 30° C. (cellular density inoculated 10^3 /ml).
as §4

[14] = system: Candida albicans; assay: Activity upon vaginal candidiasis in mice (Table 7); assay type: in vivo, female Swiss mice (Charles River CD1); conditions: for no. of animals surviving: 8 animals; for proliferation index (individual): eighth day; for tolerance by vaginal mucous membrane: mice, local; for topical in vivo activity against Candida albicans (in words): mouse
Procedure: The treatment groups consist each of 8 female Swiss mice (Charles River CD1) of average weight 20 g. The animals are infected with 0.025 ml of a 24 hour culture of Candida albicans, equal to 10^6 cellules.
0.025 ml of a suspension in lanoline of the compound to be tested, at the desired concentration, are applied locally twice a day for a week, the first treatment being started five hours after infection.
The control group is treated with the lanoline alone in the same way. On the eighth day vaginal washings are carried out with 0.025 ml of sterile physiological solution, and the liquid is sown in Petri dishes containing Bacto Biggy Agon Difco as a selective growing medium for the Candida.
After 48 hours of incubation of the dishes at 30° C. a count is taken of the colonies which have grown. Assessment of the activity is quantized using the indices listed here below:
The results are expressed as percentages of the average index of seriousness of the infection A.D.I. (Average Degree of Infection) in the animals treated with respect to the animals in the control group.
The substances under examination were tested at concentrations of 5 and 3% by weight.

Compound | MIC ([1]; ATCC1014, +10% serum) | MIC ([1]; ATCC1014, without serum) | antibacterial activity (in words) [2] | MIC ([3]; +10% serum) | MIC ([3]; without serum) | MIC ([4]; ATCC11621, +10% serum) | MIC ([4]; ATCC11621, without serum) | MIC ([5]; +10% serum) | MIC ([5]; without serum) | MIC ([6]; +10% serum) | MIC ([6]; without serum) | MIC [7] | in vivo activity against Trichophyton Mentagrophytes (in words) [8] | sterilization time ([9]; 0.1 g/l) | sterilization time ([9]; 0.25 g/l) | sterilization time ([9]; 0.5 g/l) | sterilization time ([9]; 1 g/l) | MIC ([10]; +10% serum) | MIC ([10]; without serum) | sterilising action (in words) [11] | other results
CCCCCCCCCCCC[N+](C)(C)CCOC(=O)C12CC3CC(CC(C3)C1)C2 [Example 4] | 100 µg/mL | 10 µg/mL | powerful antibacterial activity at low concentrations | 100 µg/mL | 2 µg/mL | 20 µg/mL | 0.1 µg/mL | 0.3 µg/mL | < 0.1 µg/mL | 5 µg/mL | < 0.1 µg/mL | 5 µg/mL | excellent "in vivo" activity against Trichophyton Mentagrophytes | 60 min | 60 min | 30 min | 10 min | 100 µg/mL | 2 µg/mL | swift sterilising action on all the micro-organisms tested | MIC ([12]; +10% serum): 100 µg/mL; MIC ([12]; without serum): 2 µg/mL; MIC ([13]; +10% serum): 20 µg/mL; MIC ([13]; without serum): 0.2 µg/mL; activity on Candida albicans, times greater than that of cetyl pyridine chloride [13]: about 25 times; activity on Candida albicans, times higher than that of cetyl pyridine chloride [13]: 5-10 times; % of healing (100-A.D.I. %) ([14]; 3% by weight): 57.98%; A.D.I. (compared with controls) ([14]; 3% by weight): 42.02%; average proliferation index (A.D.I) ([14]; 3% by weight): 1.00; no. of animals surviving ([14]; 3% by weight): 8; proliferation index (individual) ([14]; 3% by weight): 2-0-1-1-1-1--0-2; % of healing (100-A.D.I. %) ([14]; 5% by weight): 84.03%; A.D.I. (compared with controls) ([14]; 5% by weight): 15.97%; average proliferation index (A.D.I) ([14]; 5% by weight): 0.38; no. of animals surviving ([14]; 5% by weight): 8; tolerance by vaginal mucous membrane [14]: perfectly tolerated by very delicate tissues; topical in vivo activity against Candida albicans (in words) [14]: excellent topical activity "in vivo" even against Candida albicans
CCCCCCCCCCCC[N+](C)(C)CCNC(=O)C12CC3CC(CC(C3)C1)C2 [Example 8] | 50 µg/mL | 10 µg/mL | powerful antibacterial activity at low concentrations | 50 µg/mL | 5 µg/mL | 20 µg/mL | 0.1 µg/mL | 1 µg/mL | < 0.1 µg/mL | 5 µg/mL | < 0.1 µg/mL | 1 µg/mL | excellent "in vivo" activity against Trichophyton Mentagrophytes | 60 min | 60 min | 10 min | 7.5 min | 100 µg/mL | 2 µg/mL | swift sterilising action on all the micro-organisms tested | MIC ([12]; +10% serum): 100 µg/mL; MIC ([12]; without serum): 5 µg/mL; MIC ([13]; +10% serum): 20 µg/mL; MIC ([13]; without serum): 0.2 µg/mL; activity on Candida albicans, times greater than that of cetyl pyridine chloride [13]: about 25 times; activity on Candida albicans, times higher than that of cetyl pyridine chloride [13]: 5-10 times; % of healing (100-A.D.I. %) ([14]; 3% by weight): 63.03%; A.D.I. (compared with controls) ([14]; 3% by weight): 36.97%; average proliferation index (A.D.I) ([14]; 3% by weight): 0.88; proliferation index (individual) ([14]; 3% by weight): 0-1-1-3-0-0-0-2; % of healing (100-A.D.I. %) ([14]; 5% by weight): 78.99%; A.D.I. (compared with controls) ([14]; 5% by weight): 21.01%; average proliferation index (A.D.I) ([14]; 5% by weight): 0.50; no. of animals surviving ([14]; 5% by weight): 2; proliferation index (individual) ([14]; 5% by weight): 0-0-0-2-1-0-0-1; tolerance by vaginal mucous membrane [14]: perfectly tolerated by very delicate tissues; topical in vivo activity against Candida albicans (in words) [14]: excellent topical activity "in vivo" even against Candida albicans
